Data reported in ChEMBL document CHEMBL5316345, “Discovery of the Potent and Selective MC4R Antagonist PF-07258669 for the Potential Treatment of Appetite Loss” (J Med Chem, 2023).

Key:
Mus musculus [1] = assay: Effect on body weight in anorexia/cachexia mouse model assessed as cumulative body weight gain at 0.3 mg/kg, po administered twice a day for 20 days and measured at 1 to 21 days; format: functional; settings: time 1-21 day
Mus musculus [2] = assay: Effect on body weight in anorexia/cachexia mouse model assessed as reduction in cumulative food intake at 10 mg/kg, po administered twice a day for 20 days and measured at 1 to 21 days; format: functional; parameters: scale not given: the % may be the effect or the level left; settings: time 20 day
[3] = Volume of distribution at steady state in Beagle dog at 1 mg/kg, iv measured at 0.033 to 24 hrs by LC-MS/MS analysis; format: ADME, organism-based, Canis lupus familiaris; settings: in vivo, time 0.033-24 hrs, read-out: Vdss
Mus musculus [4] = assay: Effect on body weight in anorexia/cachexia mouse model assessed as body weight gain administered twice a day for 20 days and measured at 1 to 21 days; format: functional, organism-based; settings: dose 0.3-10 mg/kg, time 1-21 day
Mus musculus [5] = assay: Effect on body weight in anorexia/cachexia mouse model assessed as cumulative body weight gain at 3 mg/kg, po administered twice a day for 20 days and measured at 1 to 21 days; format: functional; settings: time 1-21 day
[6] = Clearance in Wistar Han rat plasma at 1 mg/kg, iv measured at 0.033 to 24 hrs by LC-MS/MS analysis; format: ADME, organism-based; settings: time 0.033-24 hrs
[7] = biological target: Sodium channel protein type 5 subunit alpha (Homo sapiens, UniProt Q14524); assay: Inhibition of recombinant human Nav1.5 expressed in CHO cells by whole cell voltage clamp electrophysiology recording; format: cell-based
Sodium channel protein type 5 subunit alpha, sequence (Q14524 whole entry): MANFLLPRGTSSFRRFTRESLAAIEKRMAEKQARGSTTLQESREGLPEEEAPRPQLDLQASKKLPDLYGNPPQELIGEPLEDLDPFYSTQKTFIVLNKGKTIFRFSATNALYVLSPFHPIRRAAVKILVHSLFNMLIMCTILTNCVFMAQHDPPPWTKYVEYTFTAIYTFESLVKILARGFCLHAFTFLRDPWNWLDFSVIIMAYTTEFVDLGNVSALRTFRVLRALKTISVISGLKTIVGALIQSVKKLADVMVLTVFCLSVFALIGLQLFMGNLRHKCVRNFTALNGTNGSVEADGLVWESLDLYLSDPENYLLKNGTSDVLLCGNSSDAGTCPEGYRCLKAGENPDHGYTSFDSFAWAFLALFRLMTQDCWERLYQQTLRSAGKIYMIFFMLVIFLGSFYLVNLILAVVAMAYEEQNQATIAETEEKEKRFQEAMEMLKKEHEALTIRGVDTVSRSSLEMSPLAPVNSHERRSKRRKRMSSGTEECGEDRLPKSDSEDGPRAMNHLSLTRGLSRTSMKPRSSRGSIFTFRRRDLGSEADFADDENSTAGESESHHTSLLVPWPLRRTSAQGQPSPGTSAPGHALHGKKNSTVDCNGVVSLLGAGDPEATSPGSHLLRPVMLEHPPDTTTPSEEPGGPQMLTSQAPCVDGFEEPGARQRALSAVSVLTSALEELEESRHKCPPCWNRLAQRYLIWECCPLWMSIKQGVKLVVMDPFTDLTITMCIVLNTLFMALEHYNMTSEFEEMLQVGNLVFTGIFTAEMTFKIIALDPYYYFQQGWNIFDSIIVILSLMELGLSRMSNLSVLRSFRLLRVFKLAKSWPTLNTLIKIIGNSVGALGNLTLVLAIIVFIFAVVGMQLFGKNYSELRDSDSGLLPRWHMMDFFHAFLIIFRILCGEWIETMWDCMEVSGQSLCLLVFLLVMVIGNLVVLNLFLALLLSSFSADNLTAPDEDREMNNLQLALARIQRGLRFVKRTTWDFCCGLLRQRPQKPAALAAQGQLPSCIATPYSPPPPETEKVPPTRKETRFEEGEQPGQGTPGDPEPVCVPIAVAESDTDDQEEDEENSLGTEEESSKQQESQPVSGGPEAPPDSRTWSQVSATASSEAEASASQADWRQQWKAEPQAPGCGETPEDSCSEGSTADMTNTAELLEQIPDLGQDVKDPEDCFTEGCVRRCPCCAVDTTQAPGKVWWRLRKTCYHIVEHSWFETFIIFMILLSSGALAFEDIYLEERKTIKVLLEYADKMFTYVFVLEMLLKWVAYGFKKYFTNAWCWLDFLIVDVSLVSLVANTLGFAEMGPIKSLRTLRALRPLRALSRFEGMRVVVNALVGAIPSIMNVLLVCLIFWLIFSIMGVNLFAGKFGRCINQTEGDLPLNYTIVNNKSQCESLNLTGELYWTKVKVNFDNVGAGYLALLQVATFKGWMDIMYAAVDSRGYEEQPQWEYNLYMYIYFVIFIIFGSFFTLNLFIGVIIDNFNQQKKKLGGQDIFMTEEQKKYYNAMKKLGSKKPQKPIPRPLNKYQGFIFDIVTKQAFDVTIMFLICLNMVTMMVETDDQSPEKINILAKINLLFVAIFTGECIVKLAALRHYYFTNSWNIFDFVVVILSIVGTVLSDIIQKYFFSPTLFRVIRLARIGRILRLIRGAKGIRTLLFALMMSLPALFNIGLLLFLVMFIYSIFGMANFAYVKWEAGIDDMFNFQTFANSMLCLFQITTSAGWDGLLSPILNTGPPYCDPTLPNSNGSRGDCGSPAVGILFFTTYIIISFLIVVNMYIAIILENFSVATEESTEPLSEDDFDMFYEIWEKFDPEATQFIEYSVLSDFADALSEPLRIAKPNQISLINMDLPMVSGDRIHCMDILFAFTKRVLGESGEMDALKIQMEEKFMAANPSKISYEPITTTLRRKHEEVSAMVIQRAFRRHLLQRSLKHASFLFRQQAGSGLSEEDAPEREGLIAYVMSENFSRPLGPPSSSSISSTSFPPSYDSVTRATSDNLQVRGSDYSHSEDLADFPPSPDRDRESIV

[8] = Half life in Beagle dog at 1 mg/kg, po measured at 0.25 to 24 hrs by LC-MS/MS analysis; format: ADME, organism-based, Canis lupus familiaris; settings: in vivo, time 0.25-24 hrs
[9] = Clearance in Beagle dog plasma at 1 mg/kg, iv measured at 0.033 to 24 hrs by LC-MS/MS analysis; format: ADME, organism-based, Canis lupus familiaris; settings: time 0.033-24 hrs
[10] = Half life in Beagle dog at 1 mg/kg, iv measured at 0.033 to 24 hrs by LC-MS/MS analysis; format: ADME, organism-based, Canis lupus familiaris; settings: in vivo, time 0.033-24 hrs
[11] = biological target: Dual specificity calcium/calmodulin-dependent 3',5'-cyclic nucleotide phosphodiesterase 1B (Homo sapiens, UniProt Q01064); assay: Inhibition of human PDE1B1
Dual specificity calcium/calmodulin-dependent 3',5'-cyclic nucleotide phosphodiesterase 1B, sequence (Q01064 whole entry): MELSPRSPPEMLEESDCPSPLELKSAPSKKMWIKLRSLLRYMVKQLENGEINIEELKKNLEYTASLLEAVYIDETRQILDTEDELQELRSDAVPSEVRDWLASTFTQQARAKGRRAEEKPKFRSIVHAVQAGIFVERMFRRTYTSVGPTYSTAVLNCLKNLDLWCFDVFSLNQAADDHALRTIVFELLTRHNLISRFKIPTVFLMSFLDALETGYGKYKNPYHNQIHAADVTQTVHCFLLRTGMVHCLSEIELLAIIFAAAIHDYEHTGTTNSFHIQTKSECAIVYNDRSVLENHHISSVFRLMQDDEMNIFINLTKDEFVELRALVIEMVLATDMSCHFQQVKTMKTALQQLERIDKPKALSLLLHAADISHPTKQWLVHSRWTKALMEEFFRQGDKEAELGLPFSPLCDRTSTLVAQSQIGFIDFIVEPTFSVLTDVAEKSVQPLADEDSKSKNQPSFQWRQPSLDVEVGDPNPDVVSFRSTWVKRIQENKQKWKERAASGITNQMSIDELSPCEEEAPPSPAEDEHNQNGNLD

[12] = AUClast in Wistar Han rat at 1 mg/kg, iv measured at 0.033 to 24 hrs by LC-MS/MS analysis; format: ADME, organism-based; parameters: dose 1 mg/kg, time upper 24 hrs, time lower 0.033 hrs, route iv; settings: in vivo
[13] = biological target: Voltage-gated inwardly rectifying potassium channel KCNH2 (Homo sapiens, UniProt Q12809); assay: Inhibition of hERG expressed in CHO cells stably at -80 mV holding potential by automated patch clamp method; format: toxicity, cell-based
Voltage-gated inwardly rectifying potassium channel KCNH2, sequence (Q12809 whole entry): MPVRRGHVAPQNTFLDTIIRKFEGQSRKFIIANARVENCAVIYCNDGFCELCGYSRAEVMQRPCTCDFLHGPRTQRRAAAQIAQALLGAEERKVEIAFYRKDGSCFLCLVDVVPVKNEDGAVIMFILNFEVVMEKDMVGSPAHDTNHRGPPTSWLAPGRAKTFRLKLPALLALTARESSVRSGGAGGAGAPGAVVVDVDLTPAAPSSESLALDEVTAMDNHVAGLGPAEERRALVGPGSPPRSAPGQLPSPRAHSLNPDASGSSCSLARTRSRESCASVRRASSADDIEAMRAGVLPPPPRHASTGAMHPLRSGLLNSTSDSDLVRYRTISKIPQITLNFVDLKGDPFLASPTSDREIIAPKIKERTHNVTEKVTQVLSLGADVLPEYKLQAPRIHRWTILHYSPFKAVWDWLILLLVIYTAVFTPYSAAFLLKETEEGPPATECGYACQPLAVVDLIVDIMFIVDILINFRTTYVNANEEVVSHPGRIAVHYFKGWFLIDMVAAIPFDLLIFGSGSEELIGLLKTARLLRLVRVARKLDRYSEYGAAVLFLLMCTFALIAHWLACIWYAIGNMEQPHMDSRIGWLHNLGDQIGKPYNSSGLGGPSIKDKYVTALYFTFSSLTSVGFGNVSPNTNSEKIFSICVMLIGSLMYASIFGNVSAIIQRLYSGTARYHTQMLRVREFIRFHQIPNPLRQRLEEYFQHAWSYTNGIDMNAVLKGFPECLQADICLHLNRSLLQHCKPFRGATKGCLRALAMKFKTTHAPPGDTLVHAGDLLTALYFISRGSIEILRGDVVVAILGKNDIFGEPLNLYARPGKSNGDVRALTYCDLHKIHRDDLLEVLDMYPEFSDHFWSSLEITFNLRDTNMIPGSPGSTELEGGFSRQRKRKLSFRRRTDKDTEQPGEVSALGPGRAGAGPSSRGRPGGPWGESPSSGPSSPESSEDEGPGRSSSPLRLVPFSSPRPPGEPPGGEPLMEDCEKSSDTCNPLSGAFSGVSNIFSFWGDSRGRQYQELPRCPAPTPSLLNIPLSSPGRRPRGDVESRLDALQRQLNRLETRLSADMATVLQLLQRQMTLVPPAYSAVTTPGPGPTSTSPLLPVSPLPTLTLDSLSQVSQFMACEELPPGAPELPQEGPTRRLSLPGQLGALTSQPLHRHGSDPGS

Mus musculus [14] = assay: Effect on body weight in anorexia/cachexia mouse model assessed as cumulative body weight gain at 1 mg/kg, po administered twice a day for 20 days and measured at 1 to 21 days; format: functional; settings: time 1-21 day
[15] = Half life in Wistar Han rat at 5 mg/kg, po measured at 0.083 to 24 hrs by LC-MS/MS analysis; format: ADME, organism-based; settings: in vivo, time 0.083-24 hrs
[16] = Displacement of [125I]-NDP-alpha-MSH from dog MC4R expressed in CHO cells by microbeta counter analysis; format: cell-based, Canis lupus familiaris
Mus musculus [17] = assay: Effect on body weight in anorexia/cachexia mouse model assessed as reduction in cumulative food intake at 1 mg/kg, po administered twice a day for 20 days and measured at 1 to 21 days; format: functional; parameters: scale not given: the % may be the effect or the level left; settings: time 1-21 day
[18] = AUC (0 to infinity) in Wistar Han rat at 1 mg/kg, iv measured at 0.033 to 24 hrs by LC-MS/MS analysis; format: ADME, organism-based; parameters: time upper 24 hrs, dose 1 mg/kg, time lower 0.033 hrs, route iv; settings: in vivo
[19] = Tmax in Beagle dog at 1 mg/kg, po measured at 0.25 to 24 hrs by LC-MS/MS analysis; format: ADME, organism-based, Canis lupus familiaris; settings: in vivo, time 0.25-24 hrs

## COc1cc([C@@H](C)C(=O)N2CC[C@@]3(COc4cc(-c5ncccn5)c(C)nc4N3)C2)c(F)cn1
Mus musculus [1]
  Activity: 2%
Mus musculus [2]
  Activity: 111%
[3]
  Vd: 1.3 L/kg
Mus musculus [4]
  Activity: Dose-Dependent Effect
Mus musculus [5]
  Activity: 9%
[6]
  clearance: 21 mL/min/kg
[7]
  IC50: > 100 µM
[8]
  half-life: 3.6 h
[9]
  clearance: 11 mL/min/kg
[10]
  half-life: 2.3 h
[11]
  IC50: > 50 µM
[12]
  AUC(0-t): 780 ng·h/mL
[13]
  IC50: 27 µM
Mus musculus [14]
  Activity: 5%
[15]
  half-life: 0.98 h
[16]
  Ki: 94 pM
Mus musculus [17]
  Activity: 26%
[18]
  AUC(0-inf): 785 ng·h/mL
[19]
  Tmax: 0.38 h
